The test concerns CD2F1 mice, L1210 leukemia ip, survival T/C. Kind of test: NCI In Vivo Anticancer Drug Screen. Data for tumor model L1210 Leukemia (intraperitoneal) in CD2F1 (CDF1) mice. To be noted: higher = longer survival. A digest of the protocol:
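Mice carrying a transplanted tumor received test compound or vehicle alone. The value is the measurement in the treated group divided by that in the vehicle-treated control group.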

Setting [1] is: endpoint: mean survival time, dose: 100.0 mg/kg/injection, schedule: Q01DX009 (ip), vehicle: saline with Tween-80.
The mark [2] stands for this setting: endpoint: mean survival time, dose: 100.0 mg/kg/injection, schedule: Q04DX003 (ip), vehicle: saline with Tween-80.
Setting [3] is: endpoint: mean survival time, dose: 200.0 mg/kg/injection, schedule: Q01DX009 (ip), vehicle: saline with Tween-80.
The mark [4] stands for this setting: endpoint: mean survival time, dose: 200.0 mg/kg/injection, schedule: Q04DX003 (ip), vehicle: saline with Tween-80.
[5] abbreviates: endpoint: mean survival time, dose: 400.0 mg/kg/injection, schedule: Q04DX003 (ip), vehicle: saline with Tween-80.
[6] abbreviates: endpoint: mean survival time, dose: 50.0 mg/kg/injection, schedule: Q01DX009 (ip), vehicle: saline with Tween-80.
Where [7] appears, read: endpoint: mean survival time, dose: 50.0 mg/kg/injection, schedule: Q04DX003 (ip), vehicle: saline with Tween-80.

Several values for one entry are separate records, joined by “and”; a condition that tells them apart may be missing. Identical values can stand only once. Inconclusive results and toxic doses are left out.

For `C=CCCCCCCCCC(=O)N(CC#N)CC(C)C`, the T/C is 104 % of control under setting [1]; 96 % of control under setting [2]; 96 % of control under setting [3]; 100 % of control under setting [4]; 94 % of control under setting [5].
Take `CCOC(=O)C(C(C)=O)C(C(C)=O)C(=O)OCC` (centres undefined): the T/C (endpoint: mean survival time, dose: 75.0 mg/kg/injection, schedule: Q01DX009 (ip), vehicle: saline with Tween-80) is 97 % of control; the T/C under setting [2] was 98 % of control; the T/C (endpoint: mean survival time, dose: 150.0 mg/kg/injection, schedule: Q01DX009 (ip), vehicle: saline with Tween-80) is 97 % of control; the T/C under setting [4] is 95 % of control; the T/C (endpoint: mean survival time, dose: 300.0 mg/kg/injection, schedule: Q01DX009 (ip), vehicle: saline with Tween-80) is 97 % of control; the T/C under setting [5] is 106 % of control.
As for `CCOC(=O)CC(=O)c1[nH]c(C)c(C(=O)OCC)c1C`, the T/C is 101 % of control under setting [2], 103 % of control under setting [4] and 101 % of control under setting [5].
Take `CCC[CH2][Sn]1([CH2]CCC)[O]OC2(CCCCC2)[O]1`: the T/C (endpoint: mean survival time, dose: 1.25 mg/kg/injection, schedule: Q01DX009 (ip), vehicle: saline with Tween-80) was 105 % of control; the T/C (endpoint: mean survival time, dose: 2.5 mg/kg/injection, schedule: Q01DX009 (ip), vehicle: saline with Tween-80) is 105 % of control; the T/C (endpoint: mean survival time, dose: 5.0 mg/kg/injection, schedule: Q01DX009 (ip), vehicle: saline with Tween-80) was 105 % of control.
With `NC(=Nc1ccccc1)Nc1ccccc1`, the T/C is 96 % of control (endpoint: mean survival time, dose: 6.25 mg/kg/injection, schedule: Q04DX002 (ip), vehicle: Klucel (hydroxypropylcellulose) (HPC)); 86 % of control (endpoint: mean survival time, dose: 12.5 mg/kg/injection, schedule: Q04DX002 (ip), vehicle: Klucel (hydroxypropylcellulose) (HPC)); 92 % of control (endpoint: mean survival time, dose: 25.0 mg/kg/injection, schedule: Q04DX002 (ip), vehicle: Klucel (hydroxypropylcellulose) (HPC)); 101 % of control under setting [6].
Consider `O=C1C(Br)=C(c2ccccc2)C(=O)C(Br)=C1c1ccccc1`, for which the T/C is 90 % of control (endpoint: mean survival time, dose: 100.0 mg/kg/injection, schedule: Q04DX002 (ip), vehicle: Klucel (hydroxypropylcellulose) (HPC)); 86 % of control (endpoint: mean survival time, dose: 200.0 mg/kg/injection, schedule: Q04DX002 (ip), vehicle: Klucel (hydroxypropylcellulose) (HPC)); 90 % of control (endpoint: mean survival time, dose: 400.0 mg/kg/injection, schedule: Q04DX002 (ip), vehicle: Klucel (hydroxypropylcellulose) (HPC)).
Consider `CCc1nc2cc(C)c(C)cc2[nH]1`, for which the T/C by setting is: (endpoint: mean survival time, dose: 12.5 mg/kg/injection, schedule: Q01DX009 (ip), vehicle: saline with Tween-80) 97 % of control; (endpoint: mean survival time, dose: 25.0 mg/kg/injection, schedule: Q01DX009 (ip), vehicle: saline with Tween-80) 100 % of control; (endpoint: mean survival time, dose: 25.0 mg/kg/injection, schedule: Q04DX003 (ip), vehicle: saline with Tween-80) 89 % of control; under setting [6], 95 % of control; under setting [7], 89 % of control; under setting [2], 93 % of control.
With `N=C(N)SCc1cccc([N+](=O)[O-])c1`, under “endpoint: mean survival time, dose: 100.0 mg/kg/injection, schedule: Q04DX002 (ip), vehicle: saline with Tween-80”, the T/C is 97 % of control.
Regarding `COc1ccc(OC)c2c1CC(C(C)=O)CC2=O` (centres undefined), the T/C is, setting by setting: (endpoint: mean survival time, dose: 12.5 mg/kg/injection, schedule: Q01DX009 (ip), vehicle: water) 98 % of control; (endpoint: mean survival time, dose: 25.0 mg/kg/injection, schedule: Q01DX009 (ip), vehicle: water) 102 % of control; (endpoint: mean survival time, dose: 50.0 mg/kg/injection, schedule: Q01DX009 (ip), vehicle: water) 106 % of control; (endpoint: mean survival time, dose: 100.0 mg/kg/injection, schedule: Q01DX009 (ip), vehicle: water) 100 % of control; (endpoint: mean survival time, dose: 200.0 mg/kg/injection, schedule: Q01DX009 (ip), vehicle: water) 92 % of control.
As for `OCC1OCOC(CO)C(O)C1O` (centres undefined), the T/C is, setting by setting: (endpoint: mean survival time, dose: 100.0 mg/kg/injection, schedule: Q04DX002 (ip), vehicle: saline) 114 % of control; (endpoint: mean survival time, dose: 200.0 mg/kg/injection, schedule: Q04DX002 (ip), vehicle: saline) 111 % of control; (endpoint: mean survival time, dose: 400.0 mg/kg/injection, schedule: Q04DX002 (ip), vehicle: saline) 100 % of control.
Regarding `Cc1ccc(-n2c(O)c(C=N)c(=O)n(-c3ccc(C)cc3)c2=O)cc1`, the T/C under setting [2] was 95 % of control, the T/C under setting [4] was 95 % of control and the T/C under setting [5] is 97 % of control.
Consider `CCNc1ncnc2c1c(C(N)=S)cn2C1OC(CO)C(O)C1O` (centres undefined), for which the T/C was 116 % of control (endpoint: mean survival time, dose: 6.25 mg/kg/injection, schedule: Q01DX009 (ip), vehicle: saline); 116 % of control (endpoint: mean survival time, dose: 12.5 mg/kg/injection, schedule: Q01DX009 (ip), vehicle: saline); 150 % of control (endpoint: mean survival time, dose: 25.0 mg/kg/injection, schedule: Q01DX009 (ip), vehicle: saline).
For `Nc1cnc(/C=C/c2ccccc2)nc1`, the T/C is, setting by setting: (endpoint: mean survival time, dose: 75.0 mg/kg/injection, schedule: Q01DX001 (ip), vehicle: other) 104 % of control; (endpoint: mean survival time, dose: 150.0 mg/kg/injection, schedule: Q01DX001 (ip), vehicle: other) 102 % of control.
Turning to `CCCCCCCCCCC(Sc1n[nH]c(=O)[nH]c1=O)C(=O)OCC` (centres undefined), the T/C was 97 % of control (endpoint: mean survival time, dose: 12.5 mg/kg/injection, schedule: Q01DX005 (ip), vehicle: distilled water + Tween-80); 97 % of control (endpoint: mean survival time, dose: 25.0 mg/kg/injection, schedule: Q01DX005 (ip), vehicle: distilled water + Tween-80); 95 % of control (endpoint: mean survival time, dose: 50.0 mg/kg/injection, schedule: Q01DX005 (ip), vehicle: distilled water + Tween-80); 95 % of control (endpoint: mean survival time, dose: 100.0 mg/kg/injection, schedule: Q01DX005 (ip), vehicle: distilled water + Tween-80); 97 % of control (endpoint: mean survival time, dose: 200.0 mg/kg/injection, schedule: Q01DX005 (ip), vehicle: distilled water + Tween-80).
`CCOC(=O)N/N=C/c1cc(Cl)ccc1O`: the T/C by setting is: under setting [7], 98 % of control; under setting [2], 93 % of control; under setting [4], 91 % of control.
For the compound `Cc1cccc(/C=C/c2cccc[n+]2[O-])[n+]1[O-]`, the T/C was 103 % of control (endpoint: mean survival time, dose: 100.0 mg/kg/injection, schedule: Q04DX003 (ip), vehicle: saline); 96 % of control (endpoint: mean survival time, dose: 200.0 mg/kg/injection, schedule: Q04DX003 (ip), vehicle: saline); 96 % of control (endpoint: mean survival time, dose: 400.0 mg/kg/injection, schedule: Q04DX003 (ip), vehicle: saline).
For the compound `CC(C(=O)OC1CCCC2OC12)S(=O)(=O)c1ccccc1` (centres undefined), the T/C is, setting by setting: under setting [6], 90 % of control; under setting [1], 94 % of control; under setting [3], 94 % of control.
`C=C1C(=O)OC2CC(C)C3C=CC(=O)C3CC12` (centres undefined): the T/C (endpoint: mean survival time, dose: 0.5 mg/kg/injection, schedule: Q01DX009 (ip), vehicle: Klucel (hydroxypropylcellulose) (HPC)) is 106 % of control; the T/C (endpoint: mean survival time, dose: 1.0 mg/kg/injection, schedule: Q01DX009 (ip), vehicle: Klucel (hydroxypropylcellulose) (HPC)) was 102 % of control; the T/C (endpoint: mean survival time, dose: 18.75 mg/kg/injection, schedule: Q01DX009 (ip), vehicle: Klucel (hydroxypropylcellulose) (HPC)) is 105 % of control.
On to `Clc1ccccc1C(Nc1cnccn1)Nc1cnccn1`, for which the T/C (endpoint: median survival time, dose: 25.0 mg/kg/injection, schedule: Q01DX009 (ip), vehicle: saline with Tween-80) is 97 % of control and 102 % of control; the T/C (endpoint: median survival time, dose: 50.0 mg/kg/injection, schedule: Q01DX009 (ip), vehicle: saline with Tween-80) is 97 % of control and 110 % of control; the T/C (endpoint: median survival time, dose: 100.0 mg/kg/injection, schedule: Q01DX009 (ip), vehicle: saline with Tween-80) is 108 % of control and 109 % of control; the T/C (endpoint: median survival time, dose: 200.0 mg/kg/injection, schedule: Q01DX009 (ip), vehicle: saline with Tween-80) is 113 % of control and 124 % of control; the T/C (endpoint: median survival time, dose: 400.0 mg/kg/injection, schedule: Q01DX009 (ip), vehicle: saline with Tween-80) is 92 % of control.
